Data set [1] can be described thus: Formation of solutions of nitrapyrin salts at 20% w/w nitrapyrin and grading of solutions. Format: physicochemical. Details: key: 5: Fully dissolved; 4: Mostly dissolved; 3: Mostly not dissolved; 2: Not dissolved; 1: Additional precipitate. An excerpt: Example 2. Formation of Solutions of Nitrapyrin Salts and Grading of Solutions
The nature of data set [2]: Nitrapyrin volatilization: weight loss on a heated balance at 100° C. It is filed as physicochemical. The following applies: for weight as a percent of original weight: heated balance 100° C.; for nitrapyrin sulfolane volatility ratio: nitrapyrin without solvent vs. solvent alone. On the procedure:
Three materials were placed on a heated balance at […] and had their weights observed every minute for 10 minutes, as a percent of original weight. The materials were: • 1. pure nitrapyrin, • 2. 25% w/w solution of nitrapyrin in sulfolane, and • 3. solution of 25% nitrapyrin salt with equimolar (on acid basis) amount of maleic-itaconic copolymer, also in sulfolane (nitrapyrin/polyanionic polymer salt).
Therefore, the disclosed nitrapyrin-organic acid ionic mixtures substantially reduce the volatilization of nitrapyrin.
Tests were run to determine the relative volatility of the nitrapyrin solution without polyanionic polymer.

[3] abbreviates: solvent A dipropylene glycol, 20% w/w nitrapyrin.
Setting [4] is: solvent B PT700, 20% w/w nitrapyrin.
Where [5] appears, read: solvent C PT250, 20% w/w nitrapyrin.
Where [6] appears, read: solvent D triethylene glycol, 20% w/w nitrapyrin.
The mark [7] stands for this setting: solvent E tripropylene glycol, 20% w/w nitrapyrin.
[8] abbreviates: solvent F propylene carbonate, 20% w/w nitrapyrin.
Where [9] appears, read: solvent G triacetin, 20% w/w nitrapyrin.
[10] abbreviates: solvent H Agnique AMD810, 20% w/w nitrapyrin.
Setting [11] is: solvent I Agnique AMD3L, 20% w/w nitrapyrin.
[12] abbreviates: solvent J Rhodiasolv ADMA10, 20% w/w nitrapyrin.
[13] abbreviates: solvent K Rhodiasolv ADMA810, 20% w/w nitrapyrin.
[14] abbreviates: solvent L Rhodiasolv PolarClean, 20% w/w nitrapyrin.

The text below walks through data of US20240389589A1, “CORROSION INHIBITORS FOR NITROGEN INHIBITOR FORMULATION” (Verdesian Life Sciences U.S., LLC, priority 2021, published 2024).

Regarding `O=C(O)C(O)C(O)C(=O)O` (centres unmarked) [tartaric], the grade of solution in data set [1] (setting [3]) amounted to 2; in data set [1] (setting [4]), 2; in data set [1] (setting [5]), 1; in data set [1] (setting [6]), 1; in data set [1] (setting [7]), 2; in data set [1] (setting [8]), 2. Besides, the grade of solution in data set [1] (setting [9]) is recorded as 2; in data set [1] (setting [10]), 5; in data set [1] (setting [11]), 5; in data set [1] (setting [12]), 5; in data set [1] (setting [13]) it was 5; in data set [1] (setting [14]), 5.

Take `O=C(O)CCC(=O)O` [succinic]: the grade of solution in data set [1] (setting [3]) worked out at 3; in data set [1] (setting [4]), 4; in data set [1] (setting [5]) it was 1; in data set [1] (setting [6]) it was 2; in data set [1] (setting [7]), 3; in data set [1] (setting [8]), 3. Besides, the grade of solution is reported as 2 in data set [1] (setting [9]); 5 in data set [1] (setting [10]); 5 in data set [1] (setting [11]); 5 in data set [1] (setting [12]); 5 in data set [1] (setting [13]); 5 in data set [1] (setting [14]).

As to adipic, the grade of solution in data set [1] (setting [3]) was 2; in data set [1] (setting [4]), 3; in data set [1] (setting [5]), 1; in data set [1] (setting [6]), 3; in data set [1] (setting [7]), 4; in data set [1] (setting [8]), 3. Moreover, the grade of solution in data set [1] (setting [9]) is 3; in data set [1] (setting [10]), 5; in data set [1] (setting [11]) it was 5; in data set [1] (setting [12]), 5; in data set [1] (setting [13]), 5; in data set [1] (setting [14]), 5.

Regarding malic, the grade of solution came out at 2 in data set [1] (setting [3]); 4 in data set [1] (setting [4]); 1 in data set [1] (setting [5]); 2 in data set [1] (setting [6]); 2 in data set [1] (setting [7]); 3 in data set [1] (setting [8]). Also, the grade of solution in data set [1] (setting [9]) amounted to 3; in data set [1] (setting [10]), 5; in data set [1] (setting [11]) it was 5; in data set [1] (setting [12]), 5; in data set [1] (setting [13]), 5; in data set [1] (setting [14]) it was 5.

For the molecule `Clc1cccc(C(Cl)(Cl)Cl)n1` [nitrapyrin without solvent, nitrapyrin], the “weight as a percent of original weight” value in data set [2] (experiment time 0 min) is 100.00%; in data set [2] (experiment time 1 min), 99.20%; in data set [2] (experiment time 2 min) it was 98.56%; in data set [2] (experiment time 3 min) it was 97.92%; in data set [2] (experiment time 4 min), 96.00%; in data set [2] (experiment time 5 min) it was 94.87%. For the same molecule, the “weight as a percent of original weight” value in data set [2] (experiment time 6 min) came out at 93.75%; in data set [2] (experiment time 7 min) it was 92.63%; in data set [2] (experiment time 8 min), 90.87%; in data set [2] (experiment time 9 min) it was 89.90%; in data set [2] (experiment time 10 min), 89.10%. Moreover, the “nitrapyrin sulfolane volatility ratio” value is reported as 401% in data set [2] (Delta 3-10), 392% in data set [2] (Delta 4-10) and 393% in data set [2] (Delta 5-10).
